Experimental data from paper PMC6522510 (Nature Communications, 2019).

Tests used:
Parameters in all cases: species or system AML cell lines (8); Primary HTS, single concentration about 10 uM, Cell Titer Glo viability; log10 luminescence, per cent inhibition relative to cycloheximide control
Details in all cases: 72 h, relative to cycloheximide control, log10 luminescence; inhibitor
CMS = tested on: CMS
MV4-11 = tested on: MV4-11
U937 = tested on: U937
M07e = tested on: M07e
CMK = tested on: CMK
ML-2 = tested on: ML-2
CHRF288-11 = tested on: CHRF288-11
MOLM-13 = tested on: MOLM-13

Row | Compound | CMS %inh (CMS) [%] | MV4-11 %inh (MV4-11) [%] | U937 %inh (U937) [%] | M07e %inh (M07e) [%] | CMK %inh (CMK) [%] | ML-2 %inh (ML-2) [%] | CHRF288-11 %inh (CHRF288-11) [%] | MOLM-13 %inh (MOLM-13) [%]
1 | CNCC1CCn2c(c(C3=C(c4cn(C)c5ccccc45)C(=O)NC3=O)c3ccccc32)C1 (stereo not shown) [SJ000581026-1] | 2.453 | 3.218 | 3.941 | 4.053 | 19.67 | 5.596 | 5.735 | 5.409
2 | COc1cc[nH]c1/C=C1\C(=O)Nc2ccccc21 [SJ000581028-1] | -2.846 | 72.48 | -1.475 | 0.1646 | 2.429 | 2.572 | 5.171 | 93.27
3 | Cn1cc(C2=C(c3cn(CCCN)c4ccccc34)C(=O)NC2=O)c2ccccc21 [SJ000581029-1, RO 31-7549] | -0.005694 | 2.189 | 0.8505 | -0.4351 | 7.447 | -0.6707 | 63.26 | 8.447
4 | COc1cc(F)c(F)cc1C(=O)c1cnc(NC2CCN(S(C)(=O)=O)CC2)nc1N [SJ000581030-1] | 6.337 | 13.02 | 15.86 | 10.16 | 33.04 | 12.87 | 9.313 | 17.32
5 | Cc1ccccc1-n1ncc(C(=O)c2ccccc2)c1N [SJ000581031-1] | -2.229 | -0.9776 | 4.01 | 0.1374 | -0.4181 | 1.074 | -2.402 | 0.4251
6 | Cn1c(=O)c(Cc2ccc(F)cc2F)cc2cnc(NC3CCOCC3)nc21 [SJ000581032-1] | 0.5188 | 0.6569 | -0.7764 | 1.669 | 3.89 | 0.882 | -3.947 | 4.514
7 | Nc1c(C(=O)c2cccc(CCCN3CCOCC3)c2)cnn1-c1ccc(F)cc1 [SJ000581033-1] | -0.1935 | -0.6007 | 0.5296 | 1.168 | -2.511 | 2.815 | 0.5002 | -0.1425
8 | O=C1NC(=NCCc2ccccc2Cl)S/C1=C\c1ccc2ncccc2c1 [SJ000581034-1] | 1.664 | -0.3328 | 0.6904 | 0.7717 | -2.328 | 3.879 | -2.34 | 1.218
9 | CSc1c(C2=C(c3cn(C)c4ccccc34)C(=O)NC2=O)c2ccccc2n1C [SJ000581035-1] | 16.27 | 31.9 | 26.62 | 31.51 | 87.18 | 21.47 | 9.742 | 28.45
10 | CN(C)CC#Cc1cccc(C(=O)c2cnn(-c3ccc(F)cc3)c2N)c1 [SJ000581036-1] | 3.514 | 0.9409 | 6.781 | 2.548 | 1.135 | 0.4348 | -3.732 | 29.95
11 | Nc1c(C(=O)c2cccc(-c3cccnc3)c2)cnn1-c1ccc(F)cc1 [SJ000581038-1] | 0.2916 | 1.728 | 0.8257 | 5.379 | -3.194 | 2.13 | -0.1911 | 1.631
12 | O=c1c(Oc2ccc(F)cc2F)cc2cnc(NC3CCOCC3)nc2n1C1CC1 [SJ000581039-1] | 3.291 | 3.055 | -0.2909 | 4.212 | 4.979 | 0.3273 | 6.117 | 0.2345
13 | Cn1cc(C2=C(c3c([S+](C)[O-])n(C)c4ccccc34)C(=O)NC2=O)c2ccccc21 (stereo not shown) [SJ000581040-1] | 0.8019 | 0.5816 | 0.5237 | 1.342 | -2.072 | 2.43 | 12.43 | -1.878
14 | Cn1cc(C2=C(c3cn(CCO)c4ccccc34)C(=O)NC2=O)c2ccccc21 [SJ000581041-1] | 9.772 | 18.13 | 14.77 | 13.99 | 80.06 | 20.21 | 72.88 | 54.73
15 | Cn1c(=O)c(Oc2ccc(F)cc2F)cc2cnc(NC3CCC(O)CC3)nc21 (stereo not shown) [SJ000581046-1] | -2.545 | -0.7465 | 2.264 | 1.519 | -4.641 | 1.601 | 5.265 | 1.486
16 | CC(C)(O)CCc1cccc(C(=O)c2cnn(-c3ccc(F)cc3)c2N)c1 [SJ000581047-1] | 5.394 | -0.34 | -2.635 | 3.158 | -5.065 | 1.278 | 1.391 | -1.69
17 | Cc1[nH]n(-c2ccccc2)c(=O)c1C(=O)c1ccccc1 [SJ000581048-1] | 1.313 | -2.724 | -0.7202 | -0.3361 | -9.373 | 0.679 | 3.222 | -1.767
18 | O=C1NC(=NCc2c(Cl)cccc2Cl)S/C1=C\c1ccc2ncccc2c1 [SJ000581049-1] | 2.314 | -1.821 | 5.41 | 1.964 | -7.089 | 1.063 | -0.3937 | 5.37
19 | COc1cccc(C2=C(c3cn(C)c4ccccc34)C(=O)NC2=O)c1 [SJ000581051-1] | 3.466 | 1.602 | -2.854 | 5.285 | -3.208 | -0.8075 | 11.8 | 1.318
20 | Cc1nc2sc3c(N)ncnc3c2c(C)c1C [SJ000581052-1] | 0.007081 | -2.527 | 1.552 | 0.5709 | -9.059 | 0.8474 | 5.518 | 0.3678
